US20050209278A1, “Piperidinyl- and piperazinyl-sulfonylmethyl hydroxamic acids and their use as protease inhibitors” (priority 2002, published 2005)
Counter-ions that a name gives are not always drawn. Like-named read-outs stand apart in the source and are kept apart here.

Assays:
MMP-14 = molecular target: T1, MMP-14 (Homo sapiens, UniProt P50281); experiment: In vitro MMP inhibition, Ki determination (fluorogenic substrate II); type: biochemical; settings: read-out: MMP-14 Ki
T1 construct: The catalytic domain enzyme was expressed in E. coli inclusion bodies, solubilized in urea; made in house
Experimental: Several hydroxamic acids and salts thereof were analyzed in in vitro assays to determine their ability to inhibit the MMP cleavage of peptide substrates. […] and IC50 constants were calculated from the assayed hydroxamic acid-MMP interactions.
Human recombinant MMP-1, MMP-2, MMP-9, MMP-13, and MMP-14 were used in this assay. All enzymes were prepared in Assignee's laboratories following usual laboratory procedures. Protocols for the preparation and use of these enzymes are available in the scientific literature. See, e.g., Enzyme Nomenclature (Academic Press, San Diego, Calif., 1992) (and the citations therein). See also, Freije et al., “Molecular cloning and expression of collagenase-3, a novel human matrix metalloproteinase produced by breast carcinomas,” J Biol. Chem., 269(24), 16766-16773 (1994).
The MMP-14 full length cDNA was provided by Dr. Gregory Goldberg of Washington University (St. Louis, Mo.). The catalytic domain enzyme was expressed in E. coli inclusion bodies, solubilized in urea, purified on a preparative […] reverse phase HPLC column, and then refolded in the presence of zinc acetate and purified for use.
All MMPs were activated using 4-aminophenylmercuric acetate (“APMA”, Sigma Chemical, St. Louis, Mo.) or trypsin. MMP-9 also was activated using human recombinant MMP-3 (purified in Assignee's laboratory following standard cloning and purification techniques).
Two fluorogenic, methoxycoumarin-containing polypeptide substrates were used in the MMP inhibition assays: [drawing 427] Here, “Dpa” is 3-(2,4-dinitrophenyl)-L-2,3-diaminopropionyl group, and “MCA” is 7-methoxycoumarin-4-yl acetyl. Substrate (I) was purchased from Baychem (Redwood City, Calif.), and substrate II was prepared Assignee's laboratory. Substrate I was used in the IC50 determination assays, while substrate II was used in the Ki determination assays. In the absence of MMP inhibitory activity, either substrate is cleaved at the Gly-Leu peptide bond. This cleavage separates the highly fluorogenic peptide from the 2,4-dinitrophenyl quencher, thus resulting in increase of fluorescent intensity.
The stock solutions of the assayed hydroxamic acids (or salts thereof) were prepared in 1% dimethyl sulfoxide (DMSO). These stock solutions were diluted in Buffer A (100 mM Tris-HCl, 100 mM NaCl, 10 mM CaCl2, 0.05% polyoxyethylene 23 lauryl ether, pH 7.5) to obtain solutions with different hydroxamic acid concentrations, i.e., assay solutions with different concentrations of the assayed MMP inhibitory compound. The experiment controls contained the same amount of Buffer A/DMSO as the assayed sample, but contained no hydroxamic acid (or salt thereof).
The assays from which the Ki determinations were made were performed as follows. The assayed hydroxamic acid samples were incubated in separate wells of untreated white polystyrene plates (Nunc Nalgene International, Rochester, N.Y.), and analyzed on a Tecan SpectraFlour Plus plate reader. The excitation wavelength was 330 nm, and the emission wavelength—420 nm. All samples (assayed hydroxamic acids and controls) were incubated in separate plate wells at room temperature for 1 hr in the presence of 4 μM of MMP substrate (II). In the absence of MMP inhibitory activity, substrate II was cleaved at the Gly-Leu bond resulting in an increase of relative fluorescence. Inhibition was observed as a reduced rate of this increase in relative fluorescence. The various hydroxamic acids were analyzed using a single low enzyme concentration with a single substrate concentration fixed at or below the Km. This protocol is a modification of method by Knight et al., FEBS Lett., 296(3), 263-266 (1992). Apparent inhibitory constants were determined by non-linear regression of reaction velocity as a function of inhibitor and enzyme concentration using Morrison's equation, as described by Kuzmic, Anal. Biochem. 286, 45-50 (2000).

MMP-2 = molecular target: T2, MMP-2 (Homo sapiens, UniProt P08253); experiment: as above; type: biochemical; settings: read-out: MMP-2 Ki
T2 construct: made in house; host or cells: MMP-2-transfected p2AHT2 cells
T2 sequence (P08253 110-660): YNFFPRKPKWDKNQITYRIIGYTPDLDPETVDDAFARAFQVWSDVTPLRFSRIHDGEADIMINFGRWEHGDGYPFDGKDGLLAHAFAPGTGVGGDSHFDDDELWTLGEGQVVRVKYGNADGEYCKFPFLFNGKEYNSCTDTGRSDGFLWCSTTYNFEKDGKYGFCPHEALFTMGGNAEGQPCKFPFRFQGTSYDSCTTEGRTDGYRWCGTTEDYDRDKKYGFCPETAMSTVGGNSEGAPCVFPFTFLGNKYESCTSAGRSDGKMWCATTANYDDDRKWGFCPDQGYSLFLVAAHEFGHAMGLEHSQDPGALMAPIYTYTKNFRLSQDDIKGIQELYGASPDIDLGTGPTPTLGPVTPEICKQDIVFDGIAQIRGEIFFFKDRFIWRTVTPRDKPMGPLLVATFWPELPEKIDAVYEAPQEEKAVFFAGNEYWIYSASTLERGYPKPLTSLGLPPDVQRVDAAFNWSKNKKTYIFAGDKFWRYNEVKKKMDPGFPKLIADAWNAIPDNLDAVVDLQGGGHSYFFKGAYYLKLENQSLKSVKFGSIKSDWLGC

[1] = human recombinant enzyme (catalytic domain), 4 μM substrate II, room temperature, 1 hr
[2] = human recombinant enzyme, 4 μM substrate II, room temperature, 1 hr

Ki (MMP-14; value not in parenthesis) [nM]	Ki (MMP-2; value not in parenthesis) [nM]	Ki (MMP-14; [1]) [nM]	Ki (MMP-2; [2]) [nM]	Structure (SMILES)
2350	0.695			CCCCOc1ccc(N2CCN(S(=O)(=O)C3(C(=O)NO)CCOCC3)CC2)cc1 [Example 145]
> 10000	20.5			CCCCCc1ccc(N2CCN(S(=O)(=O)C3(C(=O)NO)CCN(c4ccc(C)cc4)CC3)CC2)cc1 [Example 147]
> 10000	6.02			CCCCOc1ccc(N2CCN(S(=O)(=O)C3(C(=O)NO)CCN(C(=O)c4cc5ccccc5o4)CC3)CC2)cc1 [Example 127]
8660	6.41			CCCCc1ccc(N2CCN(S(=O)(=O)C3(C(=O)NO)CCN(c4ccc(C)cc4)CC3)CC2)cc1 [Example 146]
> 10000	431			COc1ccc(N2CCN(S(=O)(=O)C3(C(=O)NO)CCOCC3)CC2)nc1 [Example 108]
> 10000	49.6			CCCCCCCCCc1cnc(N2CCN(S(=O)(=O)C3(C(=O)NO)CCOCC3)CC2)nc1 [Example 111]
> 10000	2.15			CCCCOc1ccc(N2CCN(S(=O)(=O)C3(C(=O)NO)CCN(c4ccc(O)cc4)CC3)CC2)cc1 [Example 121]
2660	1.89			CCCCOc1ccc(N2CCN(S(=O)(=O)C3(C(=O)NO)CCN(c4ccccn4)CC3)CC2)cc1 [Example 149]
		1260	0.59	CCOc1ccc(N2CCN(S(=O)(=O)C3(C(=O)NO)CCOCC3)CC2)cc1 [Example 3, 4-{[4-(4-ethoxyphenyl)piperazinyl]sulfonyl}perhydro-2H-pyran-4-carbohydroxamic Acid]
158	1.2			O=C1c2ccccc2C(=O)N1CCCCc1ccc(N2CCN(S(=O)(=O)C3(C(=O)NO)CCOCC3)CC2)nc1 [Example 132]
		6910	3.82	CCCCCc1ccc(N2CCN(S(=O)(=O)C3(C(=O)NO)CCN(C(=O)C(F)(F)F)CC3)CC2)cc1 [Example 21, N-hydroxy-4-{[4-(4-pentylphenyl)piperazin-1-yl]sulfonyl}-1-(trifluoroacetyl)piperidine-4-carboxamide Hydrochloride]
2330	0.4			CCCCOc1ccc(N2CCN(S(=O)(=O)C3(C(=O)NO)CCN(C(=O)OCCF)CC3)CC2)cc1 [Example 113]
5690	2.58			O=C(NO)C1(S(=O)(=O)N2CCN(c3ccc(OCCCC(F)(F)F)cc3F)CC2)CCOCC1 [Example 117]

Continued, compound first:

Structure (SMILES)	Ki (MMP-14; value not in parenthesis) [nM]	Ki (MMP-2; value not in parenthesis) [nM]	Ki (MMP-14; [1]) [nM]	Ki (MMP-2; [2]) [nM]
CCc1ccc(N2CCN(S(=O)(=O)C3(C(=O)NO)CCOCC3)CC2)nc1 [Example 114]	97	0.367		
CCCCOc1ccc(C2CCN(S(=O)(=O)C3(C(=O)NO)CCN(CCOC)CC3)CC2)cc1 [Example 16, 4-{[4-(4-butoxyphenyl)piperidin-1-yl]sulfonyl}-N-hydroxy-1-(2-methoxyethyl)piperidine-4-carboxamide Hydrochloride]			2930	1.24
CCCCOc1ccc(N2CCN(S(=O)(=O)C3(C(=O)NO)CCN(C(=O)c4cc5ccccc5s4)CC3)CC2)cc1 [Example 143]	> 10000	8.97		
CCCCCc1ccc(N2CCN(S(=O)(=O)C3(C(=O)NO)CCN(CCOC)CC3)CC2)cc1 [Example 6, N-Hydroxy-1-(2-methoxyethyl)-4-{[4-(4-pentylphenyl)piperazin-1-yl]sulfonyl}piperidine-4-carboxamide Dihydrochloride]			2300	0.501
COCCN1CCC(C(=O)NO)(S(=O)(=O)N2CCC(c3ccc(OCCCC(F)(F)F)cc3)CC2)CC1 [Example 20, N-hydroxy-1-(2-methoxyethyl)-4-({4-[4-(4,4,4-trifluorobutoxy)phenyl]piperidin-1-yl}sulfonyl)piperidine-4-carboxamide Hydrochloride]			2670	0.83
CCCc1ccc(N2CCN(S(=O)(=O)C3(C(=O)NO)CCOCC3)CC2)nc1 [Example 136]	159	0.142		
CCCCCc1ccc(C2CCN(S(=O)(=O)C3(C(=O)NO)CCN(CCOC)CC3)CC2)cc1 [Example 15, N-hydroxy-1-(2-methoxyethyl)-4-{[4-(4-pentylpheyl)piperidin-1-yl]sulfonyl}piperidine-4-carboxamide Hydrochloride]			2960	0.89
O=C(NO)C1(S(=O)(=O)N2CCN(c3ncccn3)CC2)CCOCC1 [Example 107]	6000	115		
COCCN1CCC(C(=O)NO)(S(=O)(=O)N2CCN(c3ccc(OCC(F)(F)C(F)(F)F)cc3)CC2)CC1 [Example 144]	> 10000	0.69		
O=C(NO)C1(S(=O)(=O)N2CCN(c3ccc(OC(F)(F)C(F)F)cc3)CC2)CCOCC1 [Example 4, 4-({4-[4-(1,1,2,2-tetrafluoroethoxy)phenyl]piperazinyl}sulfonyl)perhydro-2H-pyran-4-carbohydroxamic Acid]			954	0.104
CCCCOc1ccc(N2CCN(S(=O)(=O)C3(C(=O)NO)CCN(c4cc(C)ccn4)CC3)CC2)cc1 [Example 139]	1260	2.18		
CCCCOc1ccc(N2CCN(S(=O)(=O)C3(C(=O)NO)CCN(c4nc5ccccc5o4)CC3)CC2)cc1 [Example 150]	8650	4.25		
O=C(c1cccnc1)N1CCC(C(=O)NO)(S(=O)(=O)N2CCN(c3ccc(OCCCC(F)(F)F)cc3)CC2)CC1 [Example 122]	3090	0.34		
O=C(NO)C1(S(=O)(=O)N2CCN(c3ccc(SC(F)(F)F)cc3)CC2)CCN(Cc2ccccc2)CC1 [Example 152]	2240	0.871		
CCCCCc1ccc(N2CCN(S(=O)(=O)C3(C(=O)NO)CCN(CC)CC3)CC2)cc1F [Example 22, 1-ethyl-4-{[4-(3-fluoro-4-pentylphenyl)piperazin-1-yl]sulfonyl}-N-hydroxypiperidine-4-carboxamine Hydrochloride]			9320	3.19
CCCCOc1ccc(N2CCN(S(=O)(=O)C3(C(=O)NO)CCN(c4ccc(OCCOC)nn4)CC3)CC2)cc1 [Example 129]	1300	0.508		
O=C(NO)C1(S(=O)(=O)N2CCC(c3cnc(OCC(F)(F)C(F)(F)F)cn3)CC2)CCOCC1 [Example 27]			6200	0.59
CCCCOc1ccc(N2CCN(S(=O)(=O)C3(C(=O)NO)CCN(c4ccc(C)cn4)CC3)CC2)cc1 [Example 125]	2760	1.8		
